From patent US20220127255A1, “HERBICIDAL COMPOUNDS” (SYNGENTA CROP PROTECTION AG, priority 2019, published 2022)
Counter-ions that a name gives are not always drawn. Like-named read-outs stand apart in the source and are kept apart here.

Key:
Test in all cases: Post-emergence efficacy, glasshouse spray test
Format in all cases: in vivo
[1] = test system: Amaranthus palmeri (AMAPA); details: 312 h, read-out: Control of weed species AMAPA after post-emergence application (100=total damage to plant; 0=no damage to plant)
Method: (§1) Seeds of a variety of test species were sown in standard soil in pots. After cultivation for 14 days (post-emergence) under controlled conditions in a glasshouse (at 24/16° C., day/night; 14 hours light; 65% humidity), the plants were sprayed with an aqueous spray solution derived from the dissolution of the technical active ingredient formula (I) in a small amount of acetone and a special solvent and emulsifier mixture referred to as IF50 (11.12% Emulsogen EL360 TM+44.44% N-methylpyrrolidone+44.44% Dowanol DPM glycol ether), to create a 50 g/l solution which was then diluted to required concentration using 0.25% or 1% Empicol ESC70 (Sodium lauryl ether sulphate)+1% ammonium sulphate as diluent.
(§2) The test plants were then grown in a glasshouse under controlled conditions (at 24/16° C., day/night; 14 hours light; 65% humidity) and watered twice daily. After 13 days the test was evaluated (100=total damage to plant; 0=no damage to plant).
(§3) Ipomoea hederacea (IPOHE), Euphorbia heterophylla (EPHHL), Chenopodium album (CHEAL), Amaranthus palmeri (AMAPA), Lolium perenne (LOLPE), Digitaria sanguinalis (DIGSA), Eleusine indica (ELEIN), Echinochloa crus-galli (ECHCG), Setaria faberi (SETFA)

[2] = test system: Chenopodium album (CHEAL); details: 312 h, read-out: Control of weed species CHEAL after post-emergence application (100=total damage to plant; 0=no damage to plant)
Method: as §1, §2, §3

[3] = test system: Digitaria sanguinalis (DIGSA); details: 312 h, read-out: Control of weed species DIGSA after post-emergence application (100=total damage to plant; 0=no damage to plant)
Method: as §1, §2, §3

[4] = test system: Echinochloa crus-galli (ECHCG); details: 312 h, read-out: Control of weed species ECHCG after post-emergence application (100=total damage to plant; 0=no damage to plant)
Method: as §1, §2, §3

Eleusine indica (ELEIN) = details: 312 h, read-out: Control of weed species ELEIN after post-emergence application (100=total damage to plant; 0=no damage to plant)
Method: as §1, §2, §3

[5] = test system: Euphorbia heterophylla (EPHHL); details: 312 h, read-out: Control of weed species EPHHL after post-emergence application (100=total damage to plant; 0=no damage to plant)
Method: as §1, §2, §3

[6] = test system: Ipomoea hederacea (IPOHE); details: 312 h, read-out: Control of weed species IPOHE after post-emergence application (100=total damage to plant; 0=no damage to plant)
Method: as §1, §2, §3

Lolium perenne (LOLPE) = details: 312 h, read-out: Control of weed species LOLPE after post-emergence application (100=total damage to plant; 0=no damage to plant)
Method: as §1, §2, §3

Setaria faberi (SETFA) = details: 312 h, read-out: Control of weed species SETFA after post-emergence application (100=total damage to plant; 0=no damage to plant)
Method: as §1, §2, §3

[7] = 500 g/Ha, evaluated after 13 days
[8] = 130 g/Ha, evaluated after 13 days

Compound: O=C1NC(=O)C(CC[n+]2ccc(-c3ncccn3)cn2)S1 (stereo not drawn) [Compound A1, 5-[2-(4-pyrimidin-2-ylpyridazin-1-ium-1-yl)ethyl]thiazolidine-2,4-dione trifluoroacetate]
- pest or weed control at 500 g/ha [1]: 90%
- pest or weed control at 500 g/ha [2]: 30%
- pest or weed control at 500 g/ha [3]: 60%
- pest or weed control at 500 g/ha [4]: 50%
- pest or weed control at 500 g/ha (Eleusine indica (ELEIN)): 70%
- pest or weed control at 500 g/ha [5]: 50%
- pest or weed control at 500 g/ha [6]: 50%
- pest or weed control at 500 g/ha (Lolium perenne (LOLPE)): 40%
- pest or weed control at 500 g/ha (Setaria faberi (SETFA)): 60%

Compound: Cc1cc(O)c(C(=O)C[n+]2ccc(-c3ncccn3)cn2)c(=O)o1 [Compound A2, 4-hydroxy-6-methyl-3-[2-(4-pyrimidin-2-ylpyridazin-1-ium-1-yl)acetyl]pyran-2-one trifluoroacetate]
- pest or weed control at 500 g/ha [1, 7]: 90%
- pest or weed control at 500 g/ha [2, 7]: 0%
- pest or weed control at 500 g/ha [3, 7]: 30%
- pest or weed control at 500 g/ha [4, 7]: 20%
- pest or weed control at 500 g/ha (Eleusine indica (ELEIN); [7]): 70%
- pest or weed control at 500 g/ha [5, 7]: 70%
- pest or weed control at 500 g/ha [6, 7]: 10%
- pest or weed control at 500 g/ha (Lolium perenne (LOLPE); [7]): 10%
- pest or weed control at 500 g/ha (Setaria faberi (SETFA); [7]): 20%

Compound: Cc1nnc(NC(=O)C[n+]2ccc(-c3ncccn3)cn2)s1 [Compound A3]
- pest or weed control at 500 g/ha [1, 7]: 50%
- pest or weed control at 500 g/ha [2, 7]: 30%
- pest or weed control at 500 g/ha [3, 7]: 0%
- pest or weed control at 500 g/ha [4, 7]: 10%
- pest or weed control at 500 g/ha (Eleusine indica (ELEIN); [7]): 0%
- pest or weed control at 500 g/ha (Lolium perenne (LOLPE); [7]): 0%
- pest or weed control at 500 g/ha (Setaria faberi (SETFA); [7]): 0%

Compound: O=C(C[n+]1ccc(-c2ncccn2)cn1)Nc1nccs1 [Compound A4]
- pest or weed control at 500 g/ha [1, 7]: 70%
- pest or weed control at 500 g/ha [2, 7]: 60%
- pest or weed control at 500 g/ha [3, 7]: 10%
- pest or weed control at 500 g/ha [4, 7]: 0%
- pest or weed control at 500 g/ha (Eleusine indica (ELEIN); [7]): 80%
- pest or weed control at 500 g/ha [5, 7]: 100%
- pest or weed control at 500 g/ha [6, 7]: 10%
- pest or weed control at 500 g/ha (Lolium perenne (LOLPE); [7]): 0%
- pest or weed control at 500 g/ha (Setaria faberi (SETFA); [7]): 20%

Compound: O=C(C[n+]1ccc(-c2ncccn2)cn1)Nc1nncs1 [Compound A5]
- pest or weed control at 500 g/ha [1, 7]: 100%
- pest or weed control at 500 g/ha [2, 7]: 30%
- pest or weed control at 500 g/ha [3, 7]: 70%
- pest or weed control at 500 g/ha [4, 7]: 50%
- pest or weed control at 500 g/ha (Eleusine indica (ELEIN); [7]): 70%
- pest or weed control at 500 g/ha [5, 7]: 20%
- pest or weed control at 500 g/ha [6, 7]: 20%
- pest or weed control at 500 g/ha (Lolium perenne (LOLPE); [7]): 0%
- pest or weed control at 500 g/ha (Setaria faberi (SETFA); [7]): 20%

Compound: Cn1nnnc1NC(=O)C[n+]1ccc(-c2ncccn2)cn1 [Compound A6]
- pest or weed control at 500 g/ha [1, 7]: 90%
- pest or weed control at 500 g/ha [2, 7]: 90%
- pest or weed control at 500 g/ha [3, 7]: 30%
- pest or weed control at 500 g/ha [4, 7]: 30%
- pest or weed control at 500 g/ha (Eleusine indica (ELEIN); [7]): 20%
- pest or weed control at 500 g/ha [5, 7]: 80%
- pest or weed control at 500 g/ha [6, 7]: 40%
- pest or weed control at 500 g/ha (Lolium perenne (LOLPE); [7]): 0%
- pest or weed control at 500 g/ha (Setaria faberi (SETFA); [7]): 30%

Compound: O=C(C[n+]1ccc(-c2ncccn2)cn1)Nc1nnn[n-]1 [Compound A7]
- pest or weed control at 500 g/ha [1, 7]: 90%
- pest or weed control at 500 g/ha [2, 7]: 90%
- pest or weed control at 500 g/ha [3, 7]: 30%
- pest or weed control at 500 g/ha [4, 7]: 20%
- pest or weed control at 500 g/ha (Eleusine indica (ELEIN); [7]): 30%
- pest or weed control at 500 g/ha [5, 7]: 30%
- pest or weed control at 500 g/ha [6, 7]: 30%
- pest or weed control at 500 g/ha (Lolium perenne (LOLPE); [7]): 10%
- pest or weed control at 500 g/ha (Setaria faberi (SETFA); [7]): 50%

Compound: O=S(=O)(CC[n+]1ccc(-c2ncccn2)cn1)c1cnn[nH]1 [Compound A8, 4-pyrimidin-2-yl-1-[2-(1H-triazol-5-ylsulfonyl)ethyl]pyridazin-1-ium 2,2,2-trifluoroacetate]
- pest or weed control at 130 g/ha [1, 8]: 60%
- pest or weed control at 130 g/ha [2, 8]: 0%
- pest or weed control at 130 g/ha [4, 8]: 40%
- pest or weed control at 130 g/ha (Eleusine indica (ELEIN); [8]): 50%
- pest or weed control at 130 g/ha [5, 8]: 70%
- pest or weed control at 130 g/ha [6, 8]: 20%
- pest or weed control at 130 g/ha (Lolium perenne (LOLPE); [8]): 0%
- pest or weed control at 130 g/ha (Setaria faberi (SETFA); [8]): 50%

Compound: Oc1cc(C[n+]2ccc(-c3ncccn3)cn2)on1 [Compound A9, 5-[(4-pyrimidin-2-ylpyridazin-1-ium-1-yl)methyl]isoxazol-3-ol 2,2,2-trifluoroacetate]
- pest or weed control at 500 g/ha [1, 7]: 20%
- pest or weed control at 500 g/ha [2, 7]: 40%
- pest or weed control at 500 g/ha [3, 7]: 40%
- pest or weed control at 500 g/ha [4, 7]: 30%
- pest or weed control at 500 g/ha (Eleusine indica (ELEIN); [7]): 20%
- pest or weed control at 500 g/ha [5, 7]: 30%
- pest or weed control at 500 g/ha [6, 7]: 20%
- pest or weed control at 500 g/ha (Lolium perenne (LOLPE); [7]): 10%
- pest or weed control at 500 g/ha (Setaria faberi (SETFA); [7]): 20%
